Experimental data reported in patent US20230077362A1 (CORTEVA AGRISCIENCE LLC, priority 2019, published 2023).
Where two headings read alike, the source gives them in different places.

Assays:
[1] = test system: Cabbage Looper (Trichoplusia ni) ("CL"), second instar larvae; experiment: Bioassay on cabbage looper (CL), 128-well diet tray assay; format: in vivo; details: for CL rating: C = not tested, D = no activity noticed
Method in brief: (§1)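 Second-instar larvae on diet in 128-well trays, covered and held at 25° C, 14:10 light-dark, for five to seven days. Percent mortality scored per well and averaged over eight wells; activity reported as a rating category.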

[2] = test system: Beet Armyworm (Spodoptera exigua) ("BAW"), second instar larvae; experiment: Bioassay on beet armyworm (BAW), 128-well diet tray assay; format: in vivo; details: for pest or weed control at 50 µg/cm2: Spodoptera exigua; for BAW rating: C = not tested, D = no activity noticed
Method in brief: as §1

[3] = Trichoplusia ni, read-out: CL (Biological Results, rating)
[4] = read-out: BAW (Biological Results, rating)
[5] = Trichoplusia ni, read-out: CL rating

| Structure (SMILES) | pest or weed control at 50 µg/cm2 [1, 3] [%] | pest or weed control at 50 µg/cm2 [2, 4] [%] | pest or weed control at 50 µg/cm2 [1, 5] [%] | pest or weed control at 50 µg/cm2 ([2]; read-out: BAW rating) [%] | other results |
| --- | --- | --- | --- | --- | --- |
| COc1ccc(CC(F)(F)F)c(N2C(=O)CS/C2=N\C(=O)NCC(F)c2ccc(-c3ncn(-c4ccc(OC(F)(F)F)cc4)n3)cc2C)c1 (stereo not drawn) [Compound H16] | 50 to 100 | 50 to 100 | – | – | – |
| COC(C)c1ccc(C)cc1N1C(=O)CS/C1=N\C(=O)Nc1ccc(-c2cn(-c3ccc(C(F)(F)F)cn3)cn2)cc1C (stereo not drawn) [Compound J508, (Z)-1-(3-(2-(1-Methoxyethyl)-5-methylphenyl)-4-oxothiazolidin-2-ylidene)-3-(2-methyl-4-(1-(5-(trifluoromethyl)pyridin-2-yl)-1H-imidazol-4-yl)phenyl)urea] | – | – | 50 to 100 | 50 to 100 | – |
| Cc1ccc([N+](=O)[O-])c(N2C(=O)CS/C2=N\C(=O)Nc2ccc(-c3ncn(-c4ccc(OC(F)(F)F)cc4)n3)cc2F)c1 [Compound J163, (Z)-1-(2-Fluoro-4-(1-(4-(trifluoromethoxy)phenyl)-1H-1,2,4-triazol-3-yl)phenyl)-3-(3-(5-methyl-2-nitrophenyl)-4-oxothiazolidin-2-ylidene)urea] | 50 to 100 | 50 to 100 | – | – | – |
| Cc1ccc(OCCC(F)(F)F)c(N2C(=O)CS/C2=N\C(=O)Nc2ccc(-c3ncn(-c4ccc(OC(F)(F)F)cc4)n3)cc2C(C)C)c1 [Compound J93, (Z)-1-(2-Isopropyl-4-(1-(4-(trifluoromethoxy)phenyl)-1H-1,2,4-triazol-3-yl)phenyl)-3-(3-(5-methyl-2-(3,3,3-trifluoropropoxy)phenyl)-4-oxothiazolidin-2-ylidene)urea] | 50 to 100 | 50 to 100 | – | – | – |
| COC(C)c1ccc(C)cc1N1C(=O)CS/C1=N\C(=O)Nc1ccc(-c2ncn(-c3ccc(OC(F)(F)F)cn3)n2)cc1C(F)(F)F (stereo not drawn) [Compound J276, (Z)-1-(3-(2-(1-Methoxyethyl)-5-methylphenyl)-4-oxothiazolidin-2-ylidene)-3-(4-(1-(5-(trifluoromethoxy)pyridin-2-yl)-1H-1,2,4-triazol-3-yl)-2-(trifluoromethyl)phenyl)urea] | 50 to 100 | 50 to 100 | – | – | – |
| COc1ccc(C(C)C)c(N2C(=O)CS/C2=N\C(=O)Nc2ccc(-c3ncn(-c4ccc(OC(F)(F)F)cc4)n3)cc2C(C)C)c1 [Compound J100, (Z)-1-(2-Isopropyl-4-(1-(4-(trifluoromethoxy)phenyl)-1H-1,2,4-triazol-3-yl)phenyl)-3-(3-(2-isopropyl-5-methoxyphenyl)-4-oxothiazolidin-2-ylidene)urea] | 50 to 100 | 50 to 100 | – | – | – |
| CCc1ccc(COCC(F)(F)F)c(N2C(=O)CS/C2=N\C(=O)Nc2ccc(-c3ncn(-c4ccc(OC(F)(F)F)cc4)n3)cc2F)c1 [Compound J634] | – | – | – | – | CL rating ([1]; Table ABC, species CL): A (50-100); BAW rating ([2]; Table ABC, species BAW): A (50-100) |
| CC(C)c1ccc(N(C)C)cc1N1C(=O)CS/C1=N\C(=O)Nc1ccc(-c2ncn(-c3ccc(SC(F)(F)F)cc3)n2)cc1F [Compound J334, (Z)-1-(3-(5-(Dimethylamino)-2-isopropylphenyl)-4-oxothiazolidin-2-ylidene)-3-(2-fluoro-4-(1-(4-((trifluoromethyl)thio)phenyl)-1H-1,2,4-triazol-3-yl)phenyl)urea] | 50 to 100 | 50 to 100 | – | – | – |
| Cc1ccc(OCCC(F)(F)F)c(N2C(=O)CS/C2=N\C(=O)Nc2ccc(-c3ncn(-c4ccc(OC(F)(F)F)cn4)n3)cc2C)c1 [Compound J255, (Z)-1-(3-(5-Methyl-2-(3,3,3-trifluoropropoxy)phenyl)-4-oxothiazolidin-2-ylidene)-3-(2-methyl-4-(1-(5-(trifluoromethoxy)pyridin-2-yl)-1H-1,2,4-triazol-3-yl)phenyl)urea] | 50 to 100 | 50 to 100 | – | – | – |
| CCOCc1ccc(C)cc1N1C(=O)CS/C1=N\C(=O)Nc1ccc(-c2ncn(-c3ccc(C(F)(F)C(F)(F)F)cc3)n2)cc1F [Compound J795, (Z)-1-(3-(2-(Ethoxymethyl)-5-methylphenyl)-4-oxothiazolidin-2-ylidene)-3-(2-fluoro-4-(1-(4-(perfluoroethyl)phenyl)-1H-1,2,4-triazol-3-yl)phenyl)urea] | – | – | – | – | mortality at 50 µg/cm2 ([1]; Trichoplusia ni, Table ABC, species CL, 128-well diet tray assay, second instar larvae, read-out: CL rating (% control or mortality class)): 50 to 100%; BAW rating (% control or mortality class) ([2]; Table ABC, species BAW, 128-well diet tray assay, second instar larvae): A (50-100) |
| COc1cc(COCC(F)(F)F)c(N2C(=O)CS/C2=N\C(=O)Nc2ccc(-c3ncn(-c4ccc(OC(F)(F)F)cc4)n3)cc2F)cc1OC [Compound J560] | – | – | – | – | CL rating ([1]; Table ABC, species CL): A (50-100); BAW rating ([2]; Table ABC, species BAW): A (50-100) |
| Cc1ccc(OCCC(F)(F)F)c(N2C(=O)CS/C2=N\C(=O)Nc2ccc(-c3ncn(-c4ccc(OC(F)(F)F)cn4)n3)cc2C(F)(F)F)c1 [Compound J273, (Z)-1-(3-(5-Methyl-2-(3,3,3-trifluoropropoxy)phenyl)-4-oxothiazolidin-2-ylidene)-3-(4-(1-(5-(trifluoromethoxy)pyridin-2-yl)-1H-1,2,4-triazol-3-yl)-2-(trifluoromethyl)phenyl)urea] | 50 to 100 | 50 to 100 | – | – | – |
| CN(C)c1ccc(OCC(F)(F)F)c(N2C(=O)CS/C2=N\C(=O)Nc2ccc(-n3cnc(-c4ccc(OC(F)(F)F)cc4)n3)cc2F)c1 [Compound J688, (Z)-1-(3-(5-(Dimethylamino)-2-(2,2,2-trifluoroethoxy)phenyl)-4-oxothiazolidin-2-ylidene)-3-(2-fluoro-4-(3-(4-(trifluoromethoxy)phenyl)-1H-1,2,4-triazol-1-yl)phenyl)urea] | – | – | 50 to 100 | 50 to 100 | – |
| COCc1ccc(N(C)C)cc1N1C(=O)CS/C1=N\C(=O)Nc1ccc(-c2nnc(-c3ccc(OC(F)(F)F)cc3)o2)cc1F [Compound J612, (Z)-1-(3-(5-(Dimethylamino)-2-(methoxymethyl)phenyl)-4-oxothiazolidin-2-ylidene)-3-(2-fluoro-4-(5-(4-(trifluoromethoxy)phenyl)-1,3,4-oxadiazol-2-yl)phenyl)urea] | – | – | 50 to 100 | 50 to 100 | – |
| Cc1ccc(COCC(F)(F)F)c(N2C(=O)CS/C2=N\C(=O)Nc2ccc(-c3ncn(-c4ccc(S(F)(F)(F)(F)F)cc4)n3)cc2C)c1 [Compound J549] | – | – | – | – | CL rating ([1]; Table ABC, species CL): A (50-100); BAW rating ([2]; Table ABC, species BAW): A (50-100) |
| COC(C)c1ccc(C)cc1N1C(=O)CS/C1=N\C(=O)Nc1ccc(-c2cn(-c3ccc(OC(F)(F)F)cc3)cn2)cc1 (stereo not drawn) [Compound J463, (Z)-1-(3-(2-(1-Methoxyethyl)-5-methylphenyl)-4-oxothiazolidin-2-ylidene)-3-(4-(1-(4-(trifluoromethoxy)phenyl)-1H-imidazol-4-yl)phenyl)urea] | – | – | 50 to 100 | 50 to 100 | – |
| Cc1ccc(-n2cnc(-c3ccc(NC(=O)/N=C4\SCC(=O)N4c4cc(C)ccc4COCC(F)(F)F)c(F)c3)n2)cc1 [Compound J752] | – | – | – | – | CL rating ([1]; Table ABC, species CL): A (50-100); BAW rating ([2]; Table ABC, species BAW): A (50-100) |
| Cc1cc(-c2cn(-c3ccc(C(F)(F)F)cc3)cn2)ccc1NC(=O)/N=C1\SCC(=O)N1c1cc(N(C)C)ccc1C(C)C [Compound J524, (Z)-1-(3-(5-(Dimethylamino)-2-isopropylphenyl)-4-oxothiazolidin-2-ylidene)-3-(2-methyl-4-(1-(4-(trifluoromethyl)phenyl)-1H-imidazol-4-yl)phenyl)urea] | – | – | 50 to 100 | 50 to 100 | – |
| COc1ccc(-n2cnc(-c3ccc(NC(=O)/N=C4\SCC(=O)N4c4cc(C)ccc4COCC(F)(F)F)c(F)c3)n2)cc1 [Compound J754, (Z)-1-(2-Fluoro-4-(1-(4-methoxyphenyl)-1H-1,2,4-triazol-3-yl)phenyl)-3-(3-(5-methyl-2-((2,2,2-trifluoroethoxy)methyl)phenyl)-4-oxothiazolidin-2-ylidene)urea] | – | – | 50 to 100 | 50 to 100 | – |
| CN(C)c1ccc(OCC(F)(F)F)c(N2C(=O)CS/C2=N\C(=O)Nc2ccc(-n3cnc(-c4ccc(C(F)(F)F)cc4)n3)cc2F)c1 [Compound J697, (Z)-1-(3-(5-(Dimethylamino)-2-(2,2,2-trifluoroethoxy)phenyl)-4-oxothiazolidin-2-ylidene)-3-(2-fluoro-4-(3-(4-(trifluoromethyl)phenyl)-1H-1,2,4-triazol-1-yl)phenyl)urea] | – | – | 50 to 100 | 50 to 100 | – |
| Cc1ccc(COCC(F)(F)F)c(N2C(=O)CS/C2=N\C(=O)Nc2ccc(-c3ncn(-c4ccccc4)n3)cc2C)c1 [Compound J780] | – | – | – | – | CL rating ([1]; Table ABC, species CL): A (50-100); BAW rating ([2]; Table ABC, species BAW): A (50-100) |
| CC(C)c1ccc(N(C)C)cc1N1C(=O)CS/C1=N\C(=O)Nc1ccc(-c2ncn(-c3ccc(OC(F)(F)F)cn3)n2)cc1F [Compound J238, (Z)-1-(3-(5-(Dimethylamino)-2-isopropylphenyl)-4-oxothiazolidin-2-ylidene)-3-(2-fluoro-4-(1-(5-(trifluoromethoxy)pyridin-2-yl)-1H-1,2,4-triazol-3-yl)phenyl)urea] | 50 to 100 | 50 to 100 | – | – | – |
| Cc1ccc(C(C)C)c(N2C(=O)CS/C2=N\C(=O)Nc2ccc(-n3cnc(-c4ccc(C(F)(F)F)cc4)n3)cc2F)c1 [Compound J694, (Z)-1-(2-Fluoro-4-(3-(4-(trifluoromethyl)phenyl)-1H-1,2,4-triazol-1-yl)phenyl)-3-(3-(2-isopropyl-5-methylphenyl)-4-oxothiazolidin-2-ylidene)urea] | – | – | 50 to 100 | 50 to 100 | – |
| CCOCc1ccc(C)cc1N1C(=O)CS/C1=N\C(=O)Nc1ccc(-c2ncn(-c3ccc(C)cc3)n2)cc1F [Compound J753, (Z)-1-(3-(2-(Ethoxymethyl)-5-methylphenyl)-4-oxothiazolidin-2-ylidene)-3-(2-fluoro-4-(1-(p-tolyl)-1H-1,2,4-triazol-3-yl)phenyl)urea] | – | – | 50 to 100 | 50 to 100 | – |
